Columns and labels:
[1] = molecular target: T1, C-X-C chemokine receptor type 3 (Homo sapiens, UniProt P49682); assay: Antagonist activity at human CXCR3; type: functional
T1 sequence (P49682 whole entry): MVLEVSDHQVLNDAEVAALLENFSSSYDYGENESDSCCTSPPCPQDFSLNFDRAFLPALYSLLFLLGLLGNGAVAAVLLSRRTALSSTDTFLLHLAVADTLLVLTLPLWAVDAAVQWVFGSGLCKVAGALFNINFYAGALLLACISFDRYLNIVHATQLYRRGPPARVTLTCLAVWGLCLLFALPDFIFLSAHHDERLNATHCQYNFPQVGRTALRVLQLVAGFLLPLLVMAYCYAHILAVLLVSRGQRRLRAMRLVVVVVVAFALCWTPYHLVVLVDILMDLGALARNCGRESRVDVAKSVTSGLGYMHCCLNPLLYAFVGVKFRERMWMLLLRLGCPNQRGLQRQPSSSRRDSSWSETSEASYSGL

[2] = molecular target: T2, C-X-C chemokine receptor type 3 (Mus musculus, UniProt O88410); assay: Antagonist activity at mouse CXCR3; type: functional
T2 sequence (O88410 whole entry): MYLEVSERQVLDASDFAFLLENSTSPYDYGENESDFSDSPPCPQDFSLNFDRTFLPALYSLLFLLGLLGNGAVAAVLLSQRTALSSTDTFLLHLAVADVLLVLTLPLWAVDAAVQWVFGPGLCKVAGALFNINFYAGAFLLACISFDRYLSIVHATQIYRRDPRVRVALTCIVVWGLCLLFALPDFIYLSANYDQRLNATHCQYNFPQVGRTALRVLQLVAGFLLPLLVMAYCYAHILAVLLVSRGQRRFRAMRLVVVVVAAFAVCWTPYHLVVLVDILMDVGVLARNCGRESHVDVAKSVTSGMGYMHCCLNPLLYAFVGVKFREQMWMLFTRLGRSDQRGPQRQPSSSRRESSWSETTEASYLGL

[3] = molecular target: T3, C-X-C chemokine receptor type 3 (Rattus norvegicus, UniProt Q9JII9); assay: Antagonist activity at rat CXCR3; type: functional
T3 sequence (Q9JII9 whole entry): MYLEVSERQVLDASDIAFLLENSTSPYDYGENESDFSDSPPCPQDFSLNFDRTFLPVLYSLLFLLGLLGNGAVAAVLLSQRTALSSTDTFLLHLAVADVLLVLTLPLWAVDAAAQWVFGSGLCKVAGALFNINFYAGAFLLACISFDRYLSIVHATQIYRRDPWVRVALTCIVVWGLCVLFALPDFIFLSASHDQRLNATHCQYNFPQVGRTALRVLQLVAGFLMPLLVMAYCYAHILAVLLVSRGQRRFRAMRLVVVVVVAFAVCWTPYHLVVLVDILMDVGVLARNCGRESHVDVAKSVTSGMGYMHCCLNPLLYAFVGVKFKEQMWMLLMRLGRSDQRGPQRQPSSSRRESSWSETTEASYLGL

[4] = AUC in Sprague-Dawley rat at 10 mg/kg, po after 6 hrs; type: ADME, organism-based; set-up: time < 6 hr, dose 10 mg/kg, route oral; settings: plasma
[5] = AUC in Sprague-Dawley rat at 5 mg/kg, po after 24 hrs; type: ADME, organism-based; set-up: time < 24 hr, dose 5 mg/kg, route oral; settings: plasma
[6] = Half life in Sprague-Dawley rat at 5 mg/kg, po; type: ADME, organism-based; set-up: dose 5 mg/kg, route oral; settings: in vivo
Rattus norvegicus = assay: Volume of distribution at steady state in Sprague-Dawley rat at 5 mg/kg, po; type: ADME, organism-based; set-up: dose 5 mg/kg, route oral; settings: in vivo
[7] = Clearance in Sprague-Dawley rat at 5 mg/kg, po; type: ADME, organism-based; set-up: dose 5 mg/kg, route oral; settings: in vivo
Cytochrome P450 2D6 = Cytochrome P450 2D6 (Homo sapiens, UniProt P10635); assay: Inhibition of CYP2D6; type: ADME
Cytochrome P450 3A4 = Cytochrome P450 3A4 (Homo sapiens, UniProt P08684); assay: Inhibition of CYP3A4; type: ADME
Cytochrome P450 2C19 = Cytochrome P450 2C19 (Homo sapiens, UniProt P33261); assay: Inhibition of CYP2C19; type: ADME
Cytochrome P450 2C19, sequence (P33261 whole entry): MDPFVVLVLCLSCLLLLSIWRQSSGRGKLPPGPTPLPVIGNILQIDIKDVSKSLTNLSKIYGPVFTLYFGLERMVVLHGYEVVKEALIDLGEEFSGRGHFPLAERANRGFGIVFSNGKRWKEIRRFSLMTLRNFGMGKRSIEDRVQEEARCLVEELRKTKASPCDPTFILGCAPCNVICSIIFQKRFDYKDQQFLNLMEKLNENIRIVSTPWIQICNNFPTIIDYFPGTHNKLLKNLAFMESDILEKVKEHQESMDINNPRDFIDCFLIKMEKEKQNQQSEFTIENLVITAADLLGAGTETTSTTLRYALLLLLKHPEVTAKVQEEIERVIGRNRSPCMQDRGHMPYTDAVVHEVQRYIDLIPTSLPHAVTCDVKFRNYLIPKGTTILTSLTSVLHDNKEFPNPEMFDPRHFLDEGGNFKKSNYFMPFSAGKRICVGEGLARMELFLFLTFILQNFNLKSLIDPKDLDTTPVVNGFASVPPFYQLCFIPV

Cytochrome P450 3A4, sequence (P08684 whole entry): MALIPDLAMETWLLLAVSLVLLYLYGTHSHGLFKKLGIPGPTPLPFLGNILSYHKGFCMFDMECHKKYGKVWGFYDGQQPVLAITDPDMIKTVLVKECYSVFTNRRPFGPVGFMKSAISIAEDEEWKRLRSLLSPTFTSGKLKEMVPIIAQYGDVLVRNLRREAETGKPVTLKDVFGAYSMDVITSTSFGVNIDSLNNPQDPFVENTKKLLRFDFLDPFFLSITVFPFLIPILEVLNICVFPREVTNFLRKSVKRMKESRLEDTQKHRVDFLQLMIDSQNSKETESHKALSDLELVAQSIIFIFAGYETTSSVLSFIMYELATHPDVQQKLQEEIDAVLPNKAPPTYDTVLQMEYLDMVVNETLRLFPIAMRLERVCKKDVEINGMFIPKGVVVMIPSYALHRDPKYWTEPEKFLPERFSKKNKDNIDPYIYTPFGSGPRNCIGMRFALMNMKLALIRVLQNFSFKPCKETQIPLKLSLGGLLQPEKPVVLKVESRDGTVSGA
Cytochrome P450 2D6, sequence (P10635 whole entry): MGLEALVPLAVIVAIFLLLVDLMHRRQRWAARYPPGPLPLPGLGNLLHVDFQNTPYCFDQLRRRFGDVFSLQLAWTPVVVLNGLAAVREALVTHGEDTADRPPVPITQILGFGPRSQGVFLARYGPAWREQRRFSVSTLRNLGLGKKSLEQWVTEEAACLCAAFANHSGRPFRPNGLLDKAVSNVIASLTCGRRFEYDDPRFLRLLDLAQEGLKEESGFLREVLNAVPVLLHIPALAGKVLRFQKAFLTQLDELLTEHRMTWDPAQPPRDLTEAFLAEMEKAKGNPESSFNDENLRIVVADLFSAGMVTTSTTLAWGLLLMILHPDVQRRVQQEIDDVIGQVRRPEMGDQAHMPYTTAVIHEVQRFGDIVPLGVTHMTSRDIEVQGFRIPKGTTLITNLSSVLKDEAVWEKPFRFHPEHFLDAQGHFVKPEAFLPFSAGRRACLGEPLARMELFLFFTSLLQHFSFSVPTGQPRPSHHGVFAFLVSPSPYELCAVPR

| Structure (SMILES) | IC50 [1] | further results |
| --- | --- | --- |
| CNC(=O)c1cnc(N2CCN(C3CCN(Cc4ccc(Cl)cc4Cl)CC3)[C@@H](C)C2)c(Cl)c1 | 17 nM | – |
| CNC(=O)c1cnc(N2CCN(C3CCN(Cc4ccc(C(F)(F)F)cc4)CC3)[C@@H](C)C2)c(Cl)c1 | 63 nM | – |
| CNC(=O)c1cnc(N2CCN(C3CCN(Cc4ccc(Cl)cc4F)CC3)[C@@H](C)C2)c(Cl)c1 | 18 nM | – |
| CNC(=O)c1cnc(N2CCN(C3CCN(Cc4ccc(C)cc4)CC3)[C@@H](C)C2)c(Cl)c1 | 87 nM | – |
| CNC(=O)c1cnc(N2CCN(C3CCN(Cc4ccc(S(C)(=O)=O)cc4)CC3)[C@@H](C)C2)c(Cl)c1 | > 10000 nM | – |
| CNC(=O)c1cnc(N2CCN(C3CCN(Cc4ccccn4)CC3)[C@@H](C)C2)c(Cl)c1 | 7990 nM | – |
| CNC(=O)c1cnc(N2CCN(C3CCN(Cc4ccc[nH]4)CC3)[C@@H](C)C2)c(Cl)c1 | 8060 nM | – |
| CNC(=O)c1cnc(N2CCN(C3CCN(Cc4cccs4)CC3)[C@@H](C)C2)c(Cl)c1 | 1980 nM | – |
| CNC(=O)c1cnc(N2CCN(C3CCN(Cc4ccc(Cl)cc4)CC3)[C@@H](C)C2)c(Cl)c1 | 32 nM | – |
| CNC(=O)c1cnc(N2CCN(C3CCN(Cc4ccco4)CC3)[C@@H](C)C2)c(Cl)c1 | 8100 nM | – |
| CNC(=O)c1cnc(N2CCN(C3CCN(Cc4ccc(F)cc4Cl)CC3)[C@@H](C)C2)c(Cl)c1 | 58 nM | – |
| CNC(=O)c1cnc(N2CCN(C3CCN(C(=O)c4ccc(Cl)cc4)CC3)[C@@H](C)C2)c(Cl)c1 | 210 nM | – |
| CNC(=O)c1cnc(N2CCN(C3CCN(CC(=O)c4ccc(F)cc4)CC3)[C@@H](C)C2)c(Cl)c1 | > 10000 nM | – |
| CNC(=O)c1cnc(N2CCN(C3CCN(C(=O)c4ccnc5cc(Cl)ccc45)CC3)[C@@H](C)C2)c(Cl)c1 | > 10000 nM | – |
| O=C(NCc1ccc(F)c(F)c1)c1cnc(N2CCN(C3CCN(Cc4ccc(Cl)cc4)CC3)CC2)c(Cl)c1 | – | IC50 [2]: 84 nM; IC50 [3]: 97 nM |
| C[C@H]1CN(c2ncc(C(=O)NCc3ccc(F)c(F)c3)cc2Cl)CCN1C1CCN(Cc2ccc(Cl)cc2)CC1 | 6 nM | AUC at 6 h [4]: 0.5 µM·h; AUC at 24 h [5]: 1.1 µM·h; half-life [6]: 6.8 h; Vdss (Rattus norvegicus): 17.6 L/kg; CL/F [7]: 32.6 mL/min/kg; IC50 (Cytochrome P450 2D6): > 10000 nM; IC50 (Cytochrome P450 3A4): > 10000 nM; IC50 (Cytochrome P450 2C19): > 10000 nM; IC50 [2]: 6.7 nM; IC50 [3]: 9.9 nM |
| C[C@H]1CN(c2ncc(C(=O)NCc3ccc(Cl)c(Cl)c3)cc2Cl)CCN1C1CCN(Cc2ccc(Cl)cc2)CC1 | 16 nM | – |
| C[C@H]1CN(C2CCN(Cc3ccc(Cl)cc3)CC2)CCN1c1ncc(C(=O)NCc2ccc(Cl)c(Cl)c2)cc1Cl | 39 nM | – |
| C[C@@H]1CN(C2CCN(Cc3ccc(Cl)cc3)CC2)CCN1c1ncc(C(=O)NCc2ccc(Cl)c(Cl)c2)cc1Cl | 220 nM | – |
| CC1CN(C2CCN(Cc3ccc(Cl)cc3)CC2)CCN1c1ccc(C(=O)NCc2ccc(F)c(F)c2)cn1 (stereo not given) | 2700 nM | – |

| Structure (SMILES) | IC50 [1] | further results |
| --- | --- | --- |
| CNC(=O)c1cnc(N2CCN(C3CCN(Cc4ccc(Cl)cc4)CC3C)CC2)c(Cl)c1 (stereo not given) | 64 nM | – |
| CNC(=O)c1cnc(N2CCN(C3CCN(Cc4ccc(Cl)cc4)C(C)C3)CC2)c(Cl)c1 (stereo not given) | 31 nM | – |
| CC1(N2CCN(c3ncc(C(=O)NCc4ccc(Cl)c(Cl)c4)cc3Cl)CC2)CCN(Cc2ccc(Cl)cc2)CC1 | 27 nM | – |
| O=C(NCc1ccc(F)c(F)c1)c1cnc(N2CCN(C3CCN(Cc4ccc(Cl)cc4)CC3)C(=O)C2)c(Cl)c1 | 1400 nM | – |
| CNC(=O)c1cnc(N2CCN(C3CCN(Cc4ccc(Cl)cc4)C(=O)C3)[C@@H](C)C2)c(Cl)c1 (stereo not given in full) | 7000 nM | – |
| CNC(=O)c1cnc(N2CCC(N3CCN(Cc4ccc(Cl)cc4)C[C@@H]3C)CC2)c(Cl)c1 | 12500 nM | – |
| CNC(=O)c1cnc(N2CCC(N3CCN(Cc4ccc(Cl)cc4)C[C@H]3C)CC2)c(Cl)c1 | 7350 nM | – |
| CNC(=O)c1cnc(N2CCC(N3CCN(Cc4ccc(Cl)cc4)CC3)C(C)C2)c(Cl)c1 (stereo not given) | 280 nM | – |
| COC(=O)c1cnc(N2CCN(C3CCN(Cc4ccc(Cl)cc4)CC3)[C@@H](C)C2)c(Cl)c1 | 520 nM | – |
| C[C@H]1CN(c2ncc(C(=N)N)cc2Cl)CCN1C1CCN(Cc2ccc(Cl)cc2)CC1 | 80 nM | – |
| CCNC(=N)c1cnc(N2CCN(C3CCN(Cc4ccc(Cl)cc4)CC3)[C@@H](C)C2)c(Cl)c1 | 83 nM | – |
| CC(=O)Nc1cnc(N2CCN(C3CCN(Cc4ccc(Cl)cc4)CC3)[C@@H](C)C2)c(Cl)c1 | 8 nM | – |
| C[C@H]1CN(c2ncc(NC(=O)C3CC3)cc2Cl)CCN1C1CCN(Cc2ccc(Cl)cc2)CC1 | 20 nM | – |
| C[C@H]1CN(c2ncc(C(N)=O)cc2Cl)CCN1C1CCN(Cc2ccc(Cl)cc2)CC1 | 39 nM | – |
| CCNC(=O)c1cnc(N2CCN(C3CCN(Cc4ccc(Cl)cc4)CC3)[C@@H](C)C2)c(Cl)c1 | 2.3 nM | – |
| CC(C)NC(=O)c1cnc(N2CCN(C3CCN(Cc4ccc(Cl)cc4)CC3)[C@@H](C)C2)c(Cl)c1 | 5 nM | – |
| C[C@H]1CN(c2ncc(C(=O)NCC3CCCCC3)cc2Cl)CCN1C1CCN(Cc2ccc(Cl)cc2)CC1 | 2.4 nM | – |
| C[C@H]1CN(c2ncc(C(=O)Nc3ccc(F)c(F)c3)cc2Cl)CCN1C1CCN(Cc2ccc(Cl)cc2)CC1 | 22 nM | – |
| C[C@H]1CN(c2ncc(C(=O)N3CCCCC3)cc2Cl)CCN1C1CCN(Cc2ccc(Cl)cc2)CC1 | 900 nM | – |
| C[C@H]1CN(c2ncc(C(=O)N3CCC3)cc2Cl)CCN1C1CCN(Cc2ccc(Cl)cc2)CC1 | 630 nM | – |

| Structure (SMILES) | IC50 [1] | further results |
| --- | --- | --- |
| CC[C@H]1CN(c2ncc(C(=O)NC)cc2Cl)CCN1C1CCN(Cc2ccc(Cl)cc2)CC1 | 3 nM | – |
| CNC(=O)c1cnc(N2CCN(C3CCN(Cc4ccc(Cl)cc4)CC3)[C@@H](CC(C)C)C2)c(Cl)c1 | 260 nM | – |
| CNC(=O)c1cnc(N2CCN(C3CCN(Cc4ccc(Cl)cc4)CC3)[C@@H](c3ccccc3)C2)c(Cl)c1 | 830 nM | – |
| CNC(=O)c1cnc(N2CCN(C3CCN(Cc4ccc(Cl)cc4)CC3)C(C(=O)OC)C2)c(Cl)c1 (stereo not given) | 140 nM | – |
| CNC(=O)c1cnc(N2CCN(C3CCN(Cc4ccc(Cl)cc4)CC3)C(CO)C2)c(Cl)c1 (stereo not given) | 910 nM | – |
| CNC(=O)c1cnc(N2CCN(C3CCN(Cc4ccc(Cl)cc4)CC3)C(COC)C2)c(Cl)c1 (stereo not given) | 3100 nM | – |
| CNC(=O)c1cnc(N2CCN(C3CCN(Cc4ccc(Cl)cc4)CC3)C(C(=O)O)C2)c(Cl)c1 (stereo not given) | > 50000 nM | – |
| CNC(=O)c1cnc(N2CCN(C3CCN(Cc4ccc(Cl)cc4)CC3)C(C(=O)NC)C2)c(Cl)c1 (stereo not given) | 8900 nM | – |
| CCNC(=O)c1cnc(N2CCN(C3CCN(Cc4ccc(Cl)cc4F)CC3)[C@@H](CC)C2)c(Cl)c1 | – | AUC at 6 h [4]: 0.95 µM·h; IC50 [2]: 1.1 nM; IC50 [3]: 1.6 nM |
| CCNC(=O)c1cnc(N2CCN(C3CCN(Cc4ccc(Cl)cc4)CC3)[C@@H](C(C)C)C2)c(Cl)c1 | 23 nM | – |
| CCNC(=O)c1cnc(N2CCN(C3CCN(Cc4ccc(Cl)cc4F)CC3)C(C3CC3)C2)c(Cl)c1 (stereo not given) | 32 nM | – |
| CCNC(=O)c1cnc(N2CCN(C3CCN(Cc4ccc(Cl)cc4)CC3)[C@@H](CC)C2)c(Cl)c1 | 0.3 nM | AUC at 6 h [4]: 0.41 µM·h; IC50 [2]: 0.5 nM; IC50 [3]: 1.2 nM |
| CNC(=O)c1cnc(N2CCN(C3CCN(Cc4ccc(Cl)cc4)CC3)CC2)c(Cl)c1 | 560 nM | – |
| O=C(NCc1ccc(Cl)c(Cl)c1)c1cnc(N2CCC(N3CCN(Cc4ccc(Cl)cc4)CC3)CC2)c(Cl)c1 | 4500 nM | – |
| O=C(NCc1ccc(Cl)c(Cl)c1)c1cnc(N2CCN(C3CCN(Cc4ccc(Cl)cc4)CC3)CC2)c(Cl)c1 | 35 nM | – |
| CNC(=O)c1cnc(N2CCN(C3CCN(C(C)c4ccc(Cl)cc4)CC3)[C@@H](C)C2)c(Cl)c1 (single isomer, unassigned; isomer 1) | 5 nM | – |
| CNC(=O)c1cnc(N2CCN(C3CCN(C4CCc5cc(Cl)ccc54)CC3)[C@@H](C)C2)c(Cl)c1 (single isomer, unassigned; isomer 1) | 29 nM | – |
| CNC(=O)c1cnc(N2CCN(C3CCN(C4CCc5cc(Cl)ccc54)CC3)[C@@H](C)C2)c(Cl)c1 (single isomer, unassigned; isomer 2) | 35 nM | – |
| CNC(=O)c1cnc(N2CCN(C3CCN(C(C)c4ccc(Cl)cc4)CC3)[C@@H](C)C2)c(Cl)c1 (stereo in doubt; 6l) | 110 nM | – |
